One assay has as its target T1, JH2 domain of human Tyk2 (Homo sapiens, UniProt P29597).
T1 construct: 10×His-tagged TYK2 JH2 domain (amino acid 575-876)
Put plainly: JH2 biochemical assay (TR-FRET probe displacement). The assay is classed as binding. Particulars: JH2 biochemical assay. How it is done: The inhibitory potency of compounds of the disclosure against the kinase activity of recombinantly generated JH2 domain of human Tyk2 was evaluated in a plate-based assay using a TR-FRET assay platform. Briefly, 2 nM of recombinant JH2 domain [10×His-tagged TYK2 JH2 domain (amino acid 575-876)] was combined with 2 nM probe ((S)-6-amino-9-(2-carboxy-4-((1-(3-(8-methyl-5-(methylamino)-8H-imidazo[4,5-d]thiazolo[5,4-b]pyridin-2-yl)phenyl)ethyl)carbamoyl)phenyl)-3-iminio-5-sulfo-3H-xanthene-4-sulfonate), 0.1 nM Tb-labeled anti-His antibody, and compounds of disclosure for 60 minutes. Compounds are tested at either […] top concentration, 10 points of 3-fold dilution. The TR-FRET signal […] by compounds and signal was calculated by taking the ratio of fluorescence at 520 nm and 495 nm. The data was normalized and the percent activity versus log concentration of compound was fitted with a 4-parameter logistic model to generate IC50 curves.

In assay [1] the test system is Tyk2 kinase activity on STAT4. As to the kind of experiment: pSTAT4 cell assay (MSD, NK92 cells). Particulars: compounds 1 hr, stimulated 15 minutes. The assay is classed as cell-based. How it is done:
The inhibitory potency of compounds of the disclosure against the Tyk2 kinase activity on STAT4 was evaluated using an MSD-platform plate-based assay format. NK92 cells natively expressing STAT4 and Tyk2 were serum-starved to reduce background phosphorylation levels, then cells were treated compounds for 1 hr with a 10-point four-fold dilution series starting at 10 μM. Cells were then stimulated with 30 ng/mL IL2 for 15 minutes. Cells were lysed and […] levels were quantitated using an MSD plate-based assay with anti-STAT4 antibodies. The data were normalized and the percent activity versus log concentration of compound were fitted with a 4-parameter logistic model to generate to generate IC50 curves.

Counter-ions that a name gives are not always drawn.

Usually IC50 stands for the point on the concentration scale where inhibition reaches its midpoint. Read a low IC50 as greater potency in that assay.

T1 sequence (P29597 575-876): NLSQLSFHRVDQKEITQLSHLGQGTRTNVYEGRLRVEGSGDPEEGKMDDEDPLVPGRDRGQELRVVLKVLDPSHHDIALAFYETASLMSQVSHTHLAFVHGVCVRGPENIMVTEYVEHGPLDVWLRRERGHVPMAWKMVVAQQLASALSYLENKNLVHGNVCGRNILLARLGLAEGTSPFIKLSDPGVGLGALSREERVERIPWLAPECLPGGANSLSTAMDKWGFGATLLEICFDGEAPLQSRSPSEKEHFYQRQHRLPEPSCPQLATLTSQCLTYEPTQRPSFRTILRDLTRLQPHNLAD

Turning to `CC(=O)Nc1cc2c(cn1)C1(CC1)CN2c1cc([C@@H]2C[C@H]2C#N)nc(C(C)(F)F)n1` (racemic) [Example 72, trans-rac-N-(1′-(6-(2-cyanocyclopropyl)-2-(1,1-difluoroethyl)pyrimidin-4-yl)-1′,2′-dihydrospiro[cyclopropane-1,3′-pyrrolo[3,2-c]pyridin]-6′-yl)acetamide or cis-rac-N-(1′-(6-(2-cyanocyclopropyl)-2-(1,1-difluoroethyl)pyrimidin-4-yl)-1′,2′-dihydrospiro[cyclopropane-1,3′-pyrrolo[3,2-c]pyridin]-6′-yl)acetamide], the values for the IC50 (at JH2 domain of human Tyk2; in assay [1]) were no more than 10 nM and 100 to 1000 nM, respectively.
On to `CC(=O)Nc1cc2c(cn1)C1(CC1)CN2c1cc([C@@H]2C[C@@H]2C#N)nc(C(C)(F)F)n1` (racemic) [Example 73, cis-rac-N-(1′-(6-(2-cyanocyclopropyl)-2-(1,1-difluoroethyl)pyrimidin-4-yl)-1′,2′-dihydrospiro[cyclopropane-1,3′-pyrrolo[3,2-c]pyridin]-6′-yl)acetamide or trans-rac-N-(1′-(6-(2-cyanocyclopropyl)-2-(1,1-difluoroethyl)pyrimidin-4-yl)-1′,2′-dihydrospiro[cyclopropane-1,3′-pyrrolo[3,2-c]pyridin]-6′-yl)acetamide], for which the results for the IC50 (on JH2 domain of human Tyk2; in assay [1]) were no more than 10 nM and 10 to 100 nM, respectively.
Turning to `COCCOc1cc(N2CC3(CC3)c3cnc(NC(C)=O)cc32)nc(C(C)(F)F)n1` [Example 4, N-(1′-(2-(1,1-difluoroethyl)-6-(2-methoxyethoxy)pyrimidin-4-yl)-1′,2′-dihydrospiro[cyclopropane-1,3′-pyrrolo[3,2-c]pyridin]-6′-yl)acetamide], the IC50 is no more than 10 nM on JH2 domain of human Tyk2 and 100 to 1000 nM in assay [1].
The corresponding values for `COC1CC(Oc2cc(N3CC4(CC4)c4cnc(NC(C)=O)cc43)nc(C(C)(F)F)n2)C1` (stereo not drawn) [Example 5, N-(1′-(2-(1,1-difluoroethyl)-6-(3-methoxycyclobutoxy)pyrimidin-4-yl)-1′,2′-dihydrospiro[cyclopropane-1,3′-pyrrolo[3,2-c]pyridin]-6′-yl)acetamide] are no more than 10 nM and 10 to 100 nM.
The corresponding values for `CC(=O)Nc1cc2c(cn1)C1(CC1)CN2c1cc(OC2CC2)nc(C(C)(F)F)n1` [Example 6, N-(1′-(6-cyclopropoxy-2-(1,1-difluoroethyl)pyrimidin-4-yl)-1′,2′-dihydrospiro[cyclopropane-1,3′-pyrrolo[3,2-c]pyridin]-6′-yl)acetamide] are no more than 10 nM and 10 to 100 nM.
On to `CC(=O)Nc1cc2c(cn1)C1(CC1)CN2c1ccc(F)c(C(C)(F)F)n1` [Example 7, N-(1′-(6-(1,1-difluoroethyl)-5-fluoropyridin-2-yl)-1′,2′-dihydrospiro[cyclopropane-1,3′-pyrrolo[3,2-c]pyridin]-6′-yl)acetamide], for which the IC50 at JH2 domain of human Tyk2 was no more than 10 nM; in assay [1] it was 100 to 1000 nM.
The like results for `COc1ccc(N2CC3(CC3)c3cnc(NC(C)=O)cc32)nc1C(C)(F)F` [Example 8, N-(1′-(6-(1,1-difluoroethyl)-5-methoxypyridin-2-yl)-1′,2′-dihydrospiro[cyclopropane-1,3′-pyrrolo[3,2-c]pyridin]-6′-yl)acetamide] were, in that order, no more than 10 nM and 100 to 1000 nM.
The like results for `CC(=O)Nc1cc2c(cn1)C1(CC1)CN2c1cc(N(C)C)nc(C(C)(F)F)n1` [Example 20, N-(1′-(2-(1,1-difluoroethyl)-6-(dimethylamino)pyrimidin-4-yl)-1′,2′-dihydrospiro[cyclopropane-1,3′-pyrrolo[3,2-c]pyridin]-6′-yl)acetamide] were, in that order, no more than 10 nM and 100 to 1000 nM.
On to `CC(=O)Nc1cc2c(cn1)C1(CC1)CN2c1cc(OCC2(C)COC2)nc(C(C)(F)F)n1` [Example 139, N-(1′-(2-(1,1-difluoroethyl)-6-((3-methyloxetan-3-yl)methoxy)pyrimidin-4-yl)-1′,2′-dihydrospiro[cyclopropane-1,3′-pyrrolo[3,2-c]pyridin]-6′-yl)acetamide trifluoroacetate], for which the half-maximal inhibitory concentration (IC50) in assay [1] was no less than 1000 nM.
Take `CC(=O)Nc1cc2c(cn1)C1(CC1)CN2c1cc(Oc2cnccn2)nc(C(C)(F)F)n1` [Example 146, N-(1′-(2-(1,1-difluoroethyl)-6-(pyrazin-2-yloxy)pyrimidin-4-yl)-1′,2′-dihydrospiro[cyclopropane-1,3′-pyrrolo[3,2-c]pyridin]-6′-yl)acetamide]: the IC50 in assay [1] is no less than 1000 nM.
On the same count and under the same terms, in the case of `CC(=O)Nc1cc2c(cn1)C1(CC1)CN2c1cc(Oc2ccnnc2)nc(C(C)(F)F)n1` [Example 147, N-(1′-(2-(1,1-difluoroethyl)-6-(pyridazin-4-yloxy)pyrimidin-4-yl)-1′,2′-dihydrospiro[cyclopropane-1,3′-pyrrolo[3,2-c]pyridin]-6′-yl)acetamide trifluoroacetate] it was no less than 1000 nM; in that of `CC(=O)Nc1cc2c(cn1)C1(CC1)CN2c1cc(NC23CC(C2)C3)nc(C(C)(F)F)n1` [Example 159, N-(1′-(6-(bicyclo[1.1.1]pentan-1-ylamino)-2-(1,1-difluoroethyl)pyrimidin-4-yl)-1′,2′-dihydrospiro[cyclopropane-1,3′-pyrrolo[3,2-c]pyridin]-6′-yl)acetamide trifluoroacetate], 10 to 100 nM.
On the same count and under the same terms, in the case of `CC(=O)Nc1cc2c(cn1)C1(CC1)CN2c1cc(C)nc(N2CCC(N(C)C)C2)n1` (stereo not drawn) [Example 215, N-(1′-(2-(3-(dimethylamino)pyrrolidin-1-yl)-6-methylpyrimidin-4-yl)-1′,2′-dihydrospiro[cyclopropane-1,3′-pyrrolo[3,2-c]pyridin]-6′-yl)acetamide] it was no less than 1000 nM; in that of `CC(=O)Nc1cc2c(cn1)C1(CC1)CN2c1cc(C)nc(-c2cnn(C3CCC3)c2)n1` [Example 246, N-(1′-(2-(1-cyclobutyl-1H-pyrazol-4-yl)-6-methylpyrimidin-4-yl)-1′,2′-dihydrospiro[cyclopropane-1,3′-pyrrolo[3,2-c]pyridin]-6′-yl)acetamide], no less than 1000 nM.
Still for that read-out and setting: in the case of `CC(=O)Nc1cc2c(cn1)C1(CC1)CN2c1cc(C)nc(-c2cc[nH]n2)n1` [Example 252, N-(1′-(6-methyl-2-(1H-pyrazol-3-yl)pyrimidin-4-yl)-1′,2′-dihydrospiro[cyclopropane-1,3′-pyrrolo[3,2-c]pyridin]-6′-yl)acetamide trifluoroacetate] it was 100 to 1000 nM.
In assay [1], `CC(=O)Nc1cc2c(cn1)C1(CC1)CN2c1cc(C)nc(-c2cnc(C)s2)n1` [Example 255, N-(1′-(6-methyl-2-(2-methylthiazol-5-yl)pyrimidin-4-yl)-1′,2′-dihydrospiro[cyclopropane-1,3′-pyrrolo[3,2-c]pyridin]-6′-yl)acetamide trifluoroacetate] yielded an IC50 of no less than 1000 nM.
Compound `CC(=O)Nc1cc2c(cn1)C1(CC1)CN2c1cc(CCCO)nc(C(C)(F)F)n1` [Example 295, N-(1′-(2-(1,1-difluoroethyl)-6-(3-hydroxypropyl)pyrimidin-4-yl)-1′,2′-dihydrospiro[cyclopropane-1,3′-pyrrolo[3,2-c]pyridin]-6′-yl)acetamide] registered an IC50 in assay [1] of 10 to 100 nM.
Compound `CC(=O)Nc1cc2c(cn1)C1(CC1)CN2c1cc(C(C)C#N)nc(C(C)(F)F)n1` (stereo not drawn) [Example 302, N-(1′-(6-(1-cyanoethyl)-2-(1,1-difluoroethyl)pyrimidin-4-yl)-1′,2′-dihydrospiro[cyclopropane-1,3′-pyrrolo[3,2-c]pyridin]-6′-yl)acetamide] registered an IC50 in assay [1] of 100 to 1000 nM.
The same measure, in the same setting: the value for `COCCOc1nc(C)cc(N2CC3(CC3)c3cnc(NC(C)=O)cc32)n1` [Example 360, N-(1′-(2-(2-methoxyethoxy)-6-methylpyrimidin-4-yl)-1′,2′-dihydrospiro[cyclopropane-1,3′-pyrrolo[3,2-c]pyridin]-6′-yl)acetamide trifluoroacetate] was no less than 1000 nM; that for `CC(=O)Nc1cc2c(cn1)C1(CC1)CN2c1cc(C)nc(OC(C)C)n1` [Example 362, N-(1′-(2-isopropoxy-6-methylpyrimidin-4-yl)-1′,2′-dihydrospiro[cyclopropane-1,3′-pyrrolo[3,2-c]pyridin]-6′-yl)acetamide trifluoroacetate] was 100 to 1000 nM.
On the same count and under the same terms, in the case of `CC(=O)Nc1cc2c(cn1)C1(CC1)CN2c1cc(C)nc(OC2(C)COC2)n1` [Example 365, N-(1′-(6-methyl-2-((3-methyloxetan-3-yl)oxy)pyrimidin-4-yl)-1′,2′-dihydrospiro[cyclopropane-1,3′-pyrrolo[3,2-c]pyridin]-6′-yl)acetamide] it was 100 to 1000 nM; in that of `CC(=O)Nc1cc2c(cn1)C1(CC1)CN2c1cc(C)nc(OCC2COC2)n1` [Example 366, N-(1′-(6-methyl-2-(oxetan-3-ylmethoxy)pyrimidin-4-yl)-1′,2′-dihydrospiro[cyclopropane-1,3′-pyrrolo[3,2-c]pyridin]-6′-yl)acetamide trifluoroacetate], 100 to 1000 nM.

Source of the values: patent US20260258032A1, “TYROSINE KINASE 2 INHIBITORS AND USES THEREOF” (BIOGEN MA INC., priority 2022, published 2026).
